Some results are limits rather than exact numbers.

Holding throughout (type): cell-based
The target of experiment [1] is T1, human P2X3 receptor (Homo sapiens, UniProt P56373).
T1 sequence (P56373 1-397): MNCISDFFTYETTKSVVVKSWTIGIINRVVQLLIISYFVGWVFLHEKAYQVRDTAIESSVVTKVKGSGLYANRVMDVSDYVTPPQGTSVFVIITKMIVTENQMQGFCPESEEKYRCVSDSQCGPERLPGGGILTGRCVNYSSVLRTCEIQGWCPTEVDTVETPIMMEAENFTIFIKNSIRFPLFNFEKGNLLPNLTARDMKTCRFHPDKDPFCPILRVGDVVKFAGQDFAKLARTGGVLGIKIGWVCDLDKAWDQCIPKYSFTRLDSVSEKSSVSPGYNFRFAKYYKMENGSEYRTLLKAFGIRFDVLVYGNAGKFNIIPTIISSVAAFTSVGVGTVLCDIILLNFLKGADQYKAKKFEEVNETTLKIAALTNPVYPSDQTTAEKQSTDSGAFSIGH
The experiment is described as follows: Intracellular calcium measurement, antagonist activity at human P2X3 receptors (hP2X3 1321N1), Fluo8. Also on record: expressed in transfected cells; host or cells: human astrocytoma 1321N1 (1312N1 [sic]). The conditions noted are these: column 3); 1321N1 cells, human P2X3, Fluo8, agonist ATP at EC50. A digest of the protocol: (§1)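 Inhibition of ATP-triggered Ca2+ transients is measured in 1321N1 cells expressing P2X3 homotrimers or P2X2/3 heterotrimers.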
For orientation: Calcium flux is commonly read through the fluorescence of an indicator in the cells.

Experiment [2] has as its target T2, human P2X2/3 receptors (Homo sapiens, UniProt P56373+Q9UBL9).
T2 construct: expressed in transfected cells; host or cells: human astrocytoma 1321N1 (1312N1 [sic])
T2 sequence (P56373 1-397): T1 sequence (P56373 1-397)
T2 sequence (Q9UBL9 1-471): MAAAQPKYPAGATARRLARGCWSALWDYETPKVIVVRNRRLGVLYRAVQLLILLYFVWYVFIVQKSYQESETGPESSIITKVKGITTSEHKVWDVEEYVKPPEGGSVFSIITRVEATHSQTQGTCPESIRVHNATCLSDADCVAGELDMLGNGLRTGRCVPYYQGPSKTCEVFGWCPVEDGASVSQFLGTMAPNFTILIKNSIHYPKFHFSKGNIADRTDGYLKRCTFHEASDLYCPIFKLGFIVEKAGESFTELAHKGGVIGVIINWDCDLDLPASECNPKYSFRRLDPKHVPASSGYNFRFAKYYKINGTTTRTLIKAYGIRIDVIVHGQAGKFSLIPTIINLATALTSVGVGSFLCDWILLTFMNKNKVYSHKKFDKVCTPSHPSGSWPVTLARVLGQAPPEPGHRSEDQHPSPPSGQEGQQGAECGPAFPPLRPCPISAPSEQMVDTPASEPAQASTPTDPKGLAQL
Briefly: Intracellular calcium measurement, antagonist activity at human P2X2/3 receptors (hP2X23 1321N1), Fluo8. Conditions: for IC50: column 4); 1321N1 cells, human P2X2/3, Fluo8, agonist ATP at EC50; read-out: 4) hP2X2/3 IC50 [nM] (1321N1); for hP2X23/hP2X3* Selectivity (1321N1): ratio of column 4) hP2X2/3 to column 3) hP2X3, 1321N1. In outline: as §1

Experiment [3] concerns the target T1, human P2X3 receptor. The experiment is described as follows: Intracellular calcium measurement to assess antagonist activity at human P2X3 receptors (hP2X3 CHO), photina luminescence. The arrangement: expressed in transfected cells; host or cells: Chinese hamster ovary (CHO) cells. The conditions noted are these: column 2), CHO cells, agonist α,β-methylene-ATP at EC50. A digest of the protocol: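 CHO cells stably expressing human P2X3 and mitochondrial photina, plated the day before at 30 °C, then loaded 3 h at 37 °C in 2 mM Ca-tyrode buffer with 5 μg/ml coelenterazine. Agonist-evoked calcium luminescence read immediately; inhibition seen as signal decrease.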

`COC[C@H](C)N1Cc2c(n(CC(=O)Nc3ccc(F)cn3)c3cc(-c4ccc(C)nc4)nn3c2=O)C1=O` [Example 151, N-(5-fluoropyridin-2-yl)-2-{6-[(2S)-1-methoxypropan-2-yl]-2-(6-methylpyridin-3-yl)-5,8-dioxo-5,6,7,8-tetrahydro-4H-pyrazolo[1,5-a]pyrrolo[3,4-d]pyrimidin-4-yl}acetamide]: the IC50 was 5 nM in experiment [1], 580 nM in experiment [2] and 6 nM in experiment [3]. Moreover, the “hP2X23/hP2X3* Selectivity (1321N1)” value in experiment [2] is 106.

Consider `COC[C@H](C)N1Cc2c(n(CC(=O)Nc3ccc(F)cn3)c3cc(-c4ccncc4C)nn3c2=O)C1=O` [Example 152, N-(5-fluoropyridin-2-yl)-2-{6-[(2S)-1-methoxypropan-2-yl]-2-(3-methylpyridin-4-yl)-5,8-dioxo-5,6,7,8-tetrahydro-4H-pyrazolo[1,5-a]pyrrolo[3,4-d]pyrimidin-4-yl}acetamide], for which the IC50 in experiment [1] came to 4 nM; in experiment [2], 1460 nM; in experiment [3], 9 nM. In experiment [2], the “hP2X23/hP2X3* Selectivity (1321N1)” value is 328.

Turning to `COC[C@H](C)N1Cc2c(n(CC(=O)Nc3ccc(F)cn3)c3cc(-c4ccnc(C)c4)nn3c2=O)C1=O` [Example 153], the IC50 was 6 nM in experiment [1], 2350 nM in experiment [2] and 10 nM in experiment [3]. In addition, the “hP2X23/hP2X3* Selectivity (1321N1)” value in experiment [2] is 408.

As for `Cc1ccc(-c2cc3n(CC(=O)Nc4ccc(F)cn4)c4c(c(=O)n3n2)CN(C(C)C)C4=O)cn1` [Example 154], the IC50 in experiment [1] was 8 nM; in experiment [2], 765 nM; in experiment [3], 21 nM. In addition, the “hP2X23/hP2X3* Selectivity (1321N1)” value in experiment [2] turned out to be 96.

Take `Cc1cc(C)c(-c2cc3n(CC(=O)Nc4ccc(F)cn4)c4c(c(=O)n3n2)CN(C(C)C)C4=O)cn1` [Example 156]: the IC50 in experiment [1] is 4 nM; in experiment [2] it was 295 nM; in experiment [3], 12 nM. In addition, the “hP2X23/hP2X3* Selectivity (1321N1)” value in experiment [2] was 78.

Regarding `Cc1ccc(-c2cc3n(CC(=O)Nc4ccc(F)cn4)c4c(c(=O)n3n2)CN(C(C)C)C4=O)c(C)n1` [Example 157], the IC50 was 54 nM in experiment [1], > 32000 nM in experiment [2] and 26 nM in experiment [3]. Also, in experiment [2], the “hP2X23/hP2X3* Selectivity (1321N1)” value is reported as >593.

Turning to `COC[C@H](C)N1Cc2c(n(CC(=O)Nc3ccc(F)cn3)c3cc(-c4cc(C)ncc4C)nn3c2=O)C1=O` [Example 158], the IC50 worked out at 3 nM in experiment [1], 1400 nM in experiment [2] and 10 nM in experiment [3]. Moreover, the “hP2X23/hP2X3* Selectivity (1321N1)” value in experiment [2] is 424.

For `Cc1cc(-c2cc3n(CC(=O)Nc4ccc(F)cn4)c4c(c(=O)n3n2)CN(C(C)C)C4=O)c(C)cn1` [Example 159], the IC50 worked out at 3 nM in experiment [1], 1800 nM in experiment [2] and 13 nM in experiment [3]. For the same compound, the “hP2X23/hP2X3* Selectivity (1321N1)” value in experiment [2] is 581.

Turning to `Cc1ccc(-c2cc3n(CC(=O)Nc4ccc(F)cn4)c4c(c(=O)n3n2)CN([C@@H]2CCOC2)C4=O)nc1` [Example 160, N-(5-fluoropyridin-2-yl)-2-[2-(5-methylpyridin-2-yl)-5,8-dioxo-6-[(3R)-oxolan-3-yl]-5,6,7,8-tetrahydro-4H-pyrazolo[1,5-a]pyrrolo[3,4-d]pyrimidin-4-yl]acetamide], the IC50 is 6 nM in experiment [1], 2200 nM in experiment [2] and 16 nM in experiment [3]. Further, in experiment [2], the “hP2X23/hP2X3* Selectivity (1321N1)” value came to 367.

Consider `CC(C)N1Cc2c(n(CC(=O)Nc3ccc(F)cn3)c3cc(NC4CC4)nn3c2=O)C1=O` [Example 167, 2-[2-(cyclopropylamino)-5,8-dioxo-6-(propan-2-yl)-5,6,7,8-tetrahydro-4H-pyrazolo[1,5-a]pyrrolo[3,4-d]pyrimidin-4-yl]-N-(5-fluoropyridin-2-yl)acetamide], for which the IC50 in experiment [1] turned out to be 18 nM; in experiment [2], 2300 nM; in experiment [3], 36 nM. Moreover, the “hP2X23/hP2X3* Selectivity (1321N1)” value in experiment [2] is 128.

Turning to `CC(C)N1Cc2c(n(CC(=O)Nc3ccc(F)cn3)c3cc(NC4CCCC4)nn3c2=O)C1=O` [Example 168], the IC50 in experiment [1] was 9 nM; in experiment [2], 2350 nM; in experiment [3], 17 nM. Also, in experiment [2], the “hP2X23/hP2X3* Selectivity (1321N1)” value was 250.

For the compound `COCCNc1cc2n(CC(=O)Nc3ccc(F)cn3)c3c(c(=O)n2n1)CN(C(C)C)C3=O` [Example 169], the IC50 was 120 nM in experiment [1], > 20700 nM in experiment [2] and 108 nM in experiment [3]. Also, in experiment [2], the “hP2X23/hP2X3* Selectivity (1321N1)” value was >173.

Regarding `CC(C)N1Cc2c(n(CC(=O)Nc3ccc(F)cn3)c3cc(NCC(F)F)nn3c2=O)C1=O` [Example 170], the values for the IC50 in experiment [1], in experiment [2] and in experiment [3] were 120 nM, > 20400 nM and 59 nM, respectively. In addition, in experiment [2], the “hP2X23/hP2X3* Selectivity (1321N1)” value is recorded as >170.

With `CC(C)Nc1cc2n(CC(=O)Nc3ccc(F)cn3)c3c(c(=O)n2n1)CN(C(C)C)C3=O` [Example 171], the values for the IC50 in experiment [1], in experiment [2] and in experiment [3] were 33 nM, 4900 nM and 27 nM, respectively. For the same compound, the “hP2X23/hP2X3* Selectivity (1321N1)” value in experiment [2] is listed as 148.

In the case of `CC(C)N1Cc2c(n(CC(=O)Nc3ccc(F)cn3)c3cc(N(C)C)nn3c2=O)C1=O` [Example 172], the IC50 in experiment [1] was found to be 42 nM; in experiment [2], 6350 nM; in experiment [3] it was 35 nM. Further, the “hP2X23/hP2X3* Selectivity (1321N1)” value in experiment [2] came out at 150.

For the compound `CCNc1cc2n(CC(=O)Nc3ccc(F)cn3)c3c(c(=O)n2n1)CN(C(C)C)C3=O` [Example 173], the figures for the IC50 in experiment [1], in experiment [2] and in experiment [3] were 104 nM, 8900 nM and 58 nM, respectively. Further, the “hP2X23/hP2X3* Selectivity (1321N1)” value in experiment [2] came out at 85.

Regarding `CC(C)N1Cc2c(n(CC(=O)Nc3ccc(F)cn3)c3cc(NCC4CC4)nn3c2=O)C1=O` [Example 175], the IC50 was 37 nM in experiment [1], 6950 nM in experiment [2] and 73 nM in experiment [3]. Besides, the “hP2X23/hP2X3* Selectivity (1321N1)” value in experiment [2] is given as 190.

`CC(C)N1Cc2c(n(CC(=O)Nc3ccc(F)cn3)c3cc(NCCOCc4ccccc4)nn3c2=O)C1=O` [Example 176, 2-[2-{[2-(benzyloxy)ethyl]amino}-5,8-dioxo-6-(propan-2-yl)-5,6,7,8-tetrahydro-4H-pyrazolo[1,5-a]pyrrolo[3,4-d]pyrimidin-4-yl]-N-(5-fluoropyridin-2-yl)acetamide]: the IC50 in experiment [1] was found to be 68 nM; in experiment [2], 7700 nM; in experiment [3] it was 88 nM. In addition, the “hP2X23/hP2X3* Selectivity (1321N1)” value in experiment [2] is recorded as 114.

`COC[C@H](C)N1Cc2c(n(CC(=O)Nc3ccc(F)cn3)c3cc(N(C)C)nn3c2=O)C1=O` [Example 177]: the IC50 in experiment [1] turned out to be 29 nM; in experiment [2], 11500 nM; in experiment [3], 30 nM. The “hP2X23/hP2X3* Selectivity (1321N1)” value in experiment [2] worked out at 397.

Consider `COC[C@H](C)N1Cc2c(n(CC(=O)Nc3ccc(F)cn3)c3cc(NC4CCCC4)nn3c2=O)C1=O` [Example 178], for which the IC50 in experiment [1] worked out at 2 nM; in experiment [2] it was 2200 nM; in experiment [3], 14 nM. Besides, the “hP2X23/hP2X3* Selectivity (1321N1)” value in experiment [2] came out at 917.

Take `CC(C)N1Cc2c(n(CC(=O)Nc3ccc(F)cn3)c3cc(N4CCOCC4)nn3c2=O)C1=O` [Example 180, N-(5-fluoropyridin-2-yl)-2-[2-(morpholin-4-yl)-5,8-dioxo-6-(propan-2-yl)-5,6,7,8-tetrahydro-4H-pyrazolo[1,5-a]pyrrolo[3,4-d]pyrimidin-4-yl]acetamide]: the values for the IC50 in experiment [1], in experiment [2] and in experiment [3] were 170 nM, > 32000 nM and 175 nM, respectively. Further, in experiment [2], the “hP2X23/hP2X3* Selectivity (1321N1)” value was >188.

`CC(C)N1Cc2c(n(CC(=O)Nc3ccc(F)cn3)c3cc(N4CCN(C)CC4)nn3c2=O)C1=O` [Example 181, N-(5-fluoropyridin-2-yl)-2-[2-(4-methylpiperazin-1-yl)-5,8-dioxo-6-(propan-2-yl)-5,6,7,8-tetrahydro-4H-pyrazolo[1,5-a]pyrrolo[3,4-d]pyrimidin-4-yl]acetamide]: the IC50 in experiment [1] is 32 nM; in experiment [2], 5550 nM; in experiment [3], 63 nM. In addition, the “hP2X23/hP2X3* Selectivity (1321N1)” value in experiment [2] is 173.
